pIC50: −log10 of the molar value. Where two headings read alike, the source gives them in different places.
Target: human NaV1.5 (Homo sapiens, UniProt Q14524)
Assay: IonWorks Quattro (IWQ) electrophysiology, human NaV1.5
Format: cell-based
[1] = human, read-out: Ala mutant IWQ IC50 NaV1.5
[2] = IWQ platform, single-residue Ala scan of JzTx-V, read-out: Ala mutant IWQ IC50 NaV1.5
[3] = human, read-out: Glu mutant IWQ IC50 NaV1.5

human NaV1.5, sequence (Q14524 whole entry): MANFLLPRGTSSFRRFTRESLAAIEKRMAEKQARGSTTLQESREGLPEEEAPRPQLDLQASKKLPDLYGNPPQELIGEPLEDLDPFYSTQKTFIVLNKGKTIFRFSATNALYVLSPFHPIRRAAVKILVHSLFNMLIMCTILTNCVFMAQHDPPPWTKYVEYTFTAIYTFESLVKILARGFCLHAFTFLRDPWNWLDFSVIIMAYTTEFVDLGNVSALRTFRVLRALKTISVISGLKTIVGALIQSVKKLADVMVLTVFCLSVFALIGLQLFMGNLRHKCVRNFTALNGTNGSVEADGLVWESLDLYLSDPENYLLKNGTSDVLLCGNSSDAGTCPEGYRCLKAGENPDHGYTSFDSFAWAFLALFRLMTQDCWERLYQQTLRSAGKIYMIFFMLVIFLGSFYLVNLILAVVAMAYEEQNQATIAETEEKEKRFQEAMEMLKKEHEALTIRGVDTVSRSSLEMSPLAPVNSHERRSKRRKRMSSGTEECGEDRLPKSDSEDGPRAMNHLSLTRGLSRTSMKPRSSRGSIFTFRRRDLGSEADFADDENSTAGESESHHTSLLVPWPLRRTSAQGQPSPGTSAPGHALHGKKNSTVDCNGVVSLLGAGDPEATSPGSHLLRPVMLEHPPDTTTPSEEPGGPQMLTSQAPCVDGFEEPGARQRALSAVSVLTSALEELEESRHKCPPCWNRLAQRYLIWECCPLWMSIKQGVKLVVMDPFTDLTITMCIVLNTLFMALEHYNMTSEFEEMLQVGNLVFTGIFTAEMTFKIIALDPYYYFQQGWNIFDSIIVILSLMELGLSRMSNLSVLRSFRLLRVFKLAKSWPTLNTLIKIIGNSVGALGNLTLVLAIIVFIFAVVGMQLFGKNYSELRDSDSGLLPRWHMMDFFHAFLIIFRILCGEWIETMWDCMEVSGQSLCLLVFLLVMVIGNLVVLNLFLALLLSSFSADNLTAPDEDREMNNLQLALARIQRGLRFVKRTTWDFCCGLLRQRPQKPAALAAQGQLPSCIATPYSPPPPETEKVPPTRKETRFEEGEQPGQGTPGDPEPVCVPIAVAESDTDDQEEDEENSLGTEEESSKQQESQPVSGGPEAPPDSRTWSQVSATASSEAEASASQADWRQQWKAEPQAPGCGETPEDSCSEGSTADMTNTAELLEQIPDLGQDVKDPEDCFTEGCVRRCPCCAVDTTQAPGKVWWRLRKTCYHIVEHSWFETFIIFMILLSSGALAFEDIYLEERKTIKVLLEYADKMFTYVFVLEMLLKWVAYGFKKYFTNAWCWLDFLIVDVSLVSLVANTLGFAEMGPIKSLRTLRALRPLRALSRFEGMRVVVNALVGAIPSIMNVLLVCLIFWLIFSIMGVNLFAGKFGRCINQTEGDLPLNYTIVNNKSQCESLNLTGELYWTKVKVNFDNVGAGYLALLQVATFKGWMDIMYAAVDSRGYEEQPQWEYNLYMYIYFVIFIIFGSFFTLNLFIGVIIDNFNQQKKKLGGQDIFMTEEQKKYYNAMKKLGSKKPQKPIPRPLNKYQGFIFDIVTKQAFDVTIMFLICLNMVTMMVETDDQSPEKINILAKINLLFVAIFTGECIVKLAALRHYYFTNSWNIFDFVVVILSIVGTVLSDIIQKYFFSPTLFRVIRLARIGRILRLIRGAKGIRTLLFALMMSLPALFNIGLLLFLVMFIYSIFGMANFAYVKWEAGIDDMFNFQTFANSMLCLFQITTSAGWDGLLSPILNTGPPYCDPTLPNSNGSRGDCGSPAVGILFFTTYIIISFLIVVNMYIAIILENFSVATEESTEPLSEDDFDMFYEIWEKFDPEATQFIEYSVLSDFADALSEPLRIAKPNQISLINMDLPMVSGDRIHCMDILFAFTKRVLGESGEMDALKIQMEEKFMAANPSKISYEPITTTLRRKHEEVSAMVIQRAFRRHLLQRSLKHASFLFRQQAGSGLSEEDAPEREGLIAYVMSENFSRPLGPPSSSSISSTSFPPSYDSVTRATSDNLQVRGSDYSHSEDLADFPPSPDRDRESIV

Row | Compound | pIC50 [1] | also measured
1 | CC[C@H](C)[C@H](NC(=O)[C@@H](NC(=O)[C@H](CCCCN)NC(=O)[C@H](CCCNC(=N)N)NC(=O)[C@@H]1CSSC[C@@H]2NC(=O)[C@H](C)NC(=O)[C@H](CCCNC(=N)N)NC(=O)[C@H](C)NC(=O)[C@H](CO)NC(=O)[C@H](CC(=O)O)NC(=O)[C@@H]3CSSC[C@H](NC(=O)[C@H](CCCNC(=N)N)NC(=O)[C@H](CC(C)C)NC(=O)CNC(=O)[C@H](CCC(=O)O)NC(=O)[C@H](CSSC[C@H](NC(=O)[C@@H](N)Cc4ccc(O)cc4)C(=O)N[C@@H](CCC(N)=O)C(=O)N[C@@H](CCCCN)C(=O)N[C@@H](Cc4c[nH]c5ccccc45)C(=O)N[C@@H](CCSC)C(=O)N[C@@H](Cc4c[nH]c5ccccc45)C(=O)N[C@@H]([C@@H](C)O)C(=O)N3)NC2=O)C(=O)N[C@@H](CCCCN)C(=O)N[C@@H](CC(C)C)C(=O)N[C@@H](Cc2c[nH]c3ccccc23)C(=O)N1)[C@@H](C)CC)C(N)=O [K12 Ala mutant] | < 5.30 | 
2 | CC[C@H](C)[C@H](NC(=O)[C@@H](NC(=O)[C@H](CCCCN)NC(=O)[C@H](CCCNC(=N)N)NC(=O)[C@@H]1CSSC[C@@H]2NC(=O)[C@H](C)NC(=O)[C@H](CCCNC(=N)N)NC(=O)[C@H](CCCCN)NC(=O)[C@H](CO)NC(=O)[C@H](CC(=O)O)NC(=O)[C@@H]3CSSC[C@H](NC(=O)[C@H](CCCNC(=N)N)NC(=O)[C@H](CC(C)C)NC(=O)CNC(=O)[C@H](CCC(=O)O)NC(=O)[C@H](CSSC[C@H](NC(=O)[C@H](C)N)C(=O)N[C@@H](CCC(N)=O)C(=O)N[C@@H](CCCCN)C(=O)N[C@@H](Cc4c[nH]c5ccccc45)C(=O)N[C@@H](CCSC)C(=O)N[C@@H](Cc4c[nH]c5ccccc45)C(=O)N[C@@H]([C@@H](C)O)C(=O)N3)NC2=O)C(=O)N[C@@H](CCCCN)C(=O)N[C@@H](CC(C)C)C(=O)N[C@@H](Cc2c[nH]c3ccccc23)C(=O)N1)[C@@H](C)CC)C(N)=O [Y1 Ala mutant] |  | pIC50 [2]: 5.51
3 | CC[C@H](C)[C@H](NC(=O)[C@@H](NC(=O)[C@H](CCCCN)NC(=O)[C@H](CCCNC(=N)N)NC(=O)[C@@H]1CSSC[C@@H]2NC(=O)[C@H](C)NC(=O)[C@H](CCCNC(=N)N)NC(=O)[C@H](CCCCN)NC(=O)[C@H](C)NC(=O)[C@H](CC(=O)O)NC(=O)[C@@H]3CSSC[C@H](NC(=O)[C@H](CCCNC(=N)N)NC(=O)[C@H](CC(C)C)NC(=O)CNC(=O)[C@H](CCC(=O)O)NC(=O)[C@H](CSSC[C@H](NC(=O)[C@@H](N)Cc4ccc(O)cc4)C(=O)N[C@@H](CCC(N)=O)C(=O)N[C@@H](CCCCN)C(=O)N[C@@H](Cc4c[nH]c5ccccc45)C(=O)N[C@@H](CCSC)C(=O)N[C@@H](Cc4c[nH]c5ccccc45)C(=O)N[C@@H]([C@@H](C)O)C(=O)N3)NC2=O)C(=O)N[C@@H](CCCCN)C(=O)N[C@@H](CC(C)C)C(=O)N[C@@H](Cc2c[nH]c3ccccc23)C(=O)N1)[C@@H](C)CC)C(N)=O [S11 Ala mutant] |  | pIC50 [2]: 5.45
4 | CC[C@H](C)[C@H](NC(=O)[C@@H](NC(=O)[C@H](CCCCN)NC(=O)[C@H](CCCNC(=N)N)NC(=O)[C@@H]1CSSC[C@@H]2NC(=O)[C@H](C)NC(=O)[C@H](CCCNC(=N)N)NC(=O)[C@H](CCCCN)NC(=O)[C@H](CO)NC(=O)[C@H](CC(=O)O)NC(=O)[C@@H]3CSSC[C@H](NC(=O)[C@H](CCCNC(=N)N)NC(=O)[C@H](CC(C)C)NC(=O)CNC(=O)[C@H](C)NC(=O)[C@H](CSSC[C@H](NC(=O)[C@@H](N)Cc4ccc(O)cc4)C(=O)N[C@@H](CCC(N)=O)C(=O)N[C@@H](CCCCN)C(=O)N[C@@H](Cc4c[nH]c5ccccc45)C(=O)N[C@@H](CCSC)C(=O)N[C@@H](Cc4c[nH]c5ccccc45)C(=O)N[C@@H]([C@@H](C)O)C(=O)N3)NC2=O)C(=O)N[C@@H](CCCCN)C(=O)N[C@@H](CC(C)C)C(=O)N[C@@H](Cc2c[nH]c3ccccc23)C(=O)N1)[C@@H](C)CC)C(N)=O [E17 Ala mutant] |  | pIC50 (read-out: Ala mutant IWQ IC50 NaV1.5): < 5.30
5 | CC[C@H](C)[C@H](NC(=O)[C@H](CCCCN)NC(=O)[C@H](CCCNC(=N)N)NC(=O)[C@@H]1CSSC[C@@H]2NC(=O)[C@H](C)NC(=O)[C@H](CCCNC(=N)N)NC(=O)[C@H](CCCCN)NC(=O)[C@H](CO)NC(=O)[C@H](CC(=O)O)NC(=O)[C@@H]3CSSC[C@H](NC(=O)[C@H](CCCNC(=N)N)NC(=O)[C@H](CC(C)C)NC(=O)CNC(=O)[C@H](CCC(=O)O)NC(=O)[C@H](CSSC[C@H](NC(=O)[C@@H](N)Cc4ccc(O)cc4)C(=O)N[C@@H](CCC(N)=O)C(=O)N[C@@H](CCCCN)C(=O)N[C@@H](Cc4c[nH]c5ccccc45)C(=O)N[C@@H](CCSC)C(=O)N[C@@H](Cc4c[nH]c5ccccc45)C(=O)N[C@@H]([C@@H](C)O)C(=O)N3)NC2=O)C(=O)N[C@@H](CCCCN)C(=O)N[C@@H](CC(C)C)C(=O)N[C@@H](Cc2c[nH]c3ccccc23)C(=O)N1)C(=O)N[C@@H](C)C(N)=O [I29 Ala mutant] | < 5.30 | 
6 | CC[C@H](C)[C@H](NC(=O)[C@@H](NC(=O)[C@H](CCCCN)NC(=O)[C@H](CCCNC(=N)N)NC(=O)[C@@H]1CSSC[C@@H]2NC(=O)[C@H](C)NC(=O)[C@H](CCCNC(=N)N)NC(=O)[C@H](CCCCN)NC(=O)[C@H](CO)NC(=O)[C@H](CC(=O)O)NC(=O)[C@@H]3CSSC[C@H](NC(=O)[C@H](CCCNC(=N)N)NC(=O)[C@H](CC(C)C)NC(=O)CNC(=O)[C@H](CCC(=O)O)NC(=O)[C@H](CSSC[C@H](NC(=O)[C@@H](N)Cc4ccc(O)cc4)C(=O)N[C@@H](CCC(N)=O)C(=O)N[C@@H](CCCCN)C(=O)N[C@@H](Cc4c[nH]c5ccccc45)C(=O)N[C@@H](CCSC)C(=O)N[C@@H](Cc4c[nH]c5ccccc45)C(=O)N[C@@H]([C@@H](C)O)C(=O)N3)NC2=O)C(=O)N[C@@H](CCCCN)C(=O)N[C@@H](CCC(=O)O)C(=O)N[C@@H](Cc2c[nH]c3ccccc23)C(=O)N1)[C@@H](C)CC)C(N)=O [L23 Glu mutant] |  | pIC50 [3]: < 5.30
7 | CC[C@H](C)[C@H](NC(=O)[C@@H](NC(=O)[C@H](CCCCN)NC(=O)[C@H](CCCNC(=N)N)NC(=O)[C@@H]1CSSC[C@@H]2NC(=O)[C@H](C)NC(=O)[C@H](CCCNC(=N)N)NC(=O)[C@H](CCCCN)NC(=O)[C@H](CO)NC(=O)[C@H](CC(=O)O)NC(=O)[C@@H]3CSSC[C@H](NC(=O)[C@H](CCCNC(=N)N)NC(=O)[C@H](CC(C)C)NC(=O)CNC(=O)[C@H](CCC(=O)O)NC(=O)[C@H](CSSC[C@H](NC(=O)[C@@H](N)Cc4ccc(O)cc4)C(=O)N[C@@H](CCC(N)=O)C(=O)N[C@@H](CCCCN)C(=O)N[C@@H](Cc4c[nH]c5ccccc45)C(=O)N[C@@H](CCSC)C(=O)N[C@@H](Cc4c[nH]c5ccccc45)C(=O)N[C@@H](C)C(=O)N3)NC2=O)C(=O)N[C@@H](CCCCN)C(=O)N[C@@H](CC(C)C)C(=O)N[C@@H](Cc2c[nH]c3ccccc23)C(=O)N1)[C@@H](C)CC)C(N)=O [T8 Ala mutant] | < 5.30 | 
8 | CC[C@H](C)[C@H](NC(=O)[C@@H](NC(=O)[C@H](CCCCN)NC(=O)[C@H](CCCNC(=N)N)NC(=O)[C@@H]1CSSC[C@@H]2NC(=O)[C@H](C)NC(=O)[C@H](CCCNC(=N)N)NC(=O)[C@H](CCCCN)NC(=O)[C@H](CO)NC(=O)[C@H](CC(=O)O)NC(=O)[C@@H]3CSSC[C@H](NC(=O)[C@H](CCCNC(=N)N)NC(=O)[C@H](CC(C)C)NC(=O)CNC(=O)[C@H](CCC(=O)O)NC(=O)[C@H](CSSC[C@H](NC(=O)[C@@H](N)Cc4ccc(O)cc4)C(=O)N[C@@H](CCC(N)=O)C(=O)N[C@@H](CCCCN)C(=O)N[C@@H](Cc4c[nH]c5ccccc45)C(=O)N[C@@H](C)C(=O)N[C@@H](Cc4c[nH]c5ccccc45)C(=O)N[C@@H]([C@@H](C)O)C(=O)N3)NC2=O)C(=O)N[C@@H](CCCCN)C(=O)N[C@@H](CC(C)C)C(=O)N[C@@H](Cc2c[nH]c3ccccc23)C(=O)N1)[C@@H](C)CC)C(N)=O [M6 Ala mutant] | < 5.30 | 
9 | CC[C@H](C)[C@H](NC(=O)[C@@H](NC(=O)[C@H](CCCCN)NC(=O)[C@H](CCCNC(=N)N)NC(=O)[C@@H]1CSSC[C@@H]2NC(=O)[C@H](C)NC(=O)[C@H](C)NC(=O)[C@H](CCCCN)NC(=O)[C@H](CO)NC(=O)[C@H](CC(=O)O)NC(=O)[C@@H]3CSSC[C@H](NC(=O)[C@H](CCCNC(=N)N)NC(=O)[C@H](CC(C)C)NC(=O)CNC(=O)[C@H](CCC(=O)O)NC(=O)[C@H](CSSC[C@H](NC(=O)[C@@H](N)Cc4ccc(O)cc4)C(=O)N[C@@H](CCC(N)=O)C(=O)N[C@@H](CCCCN)C(=O)N[C@@H](Cc4c[nH]c5ccccc45)C(=O)N[C@@H](CCSC)C(=O)N[C@@H](Cc4c[nH]c5ccccc45)C(=O)N[C@@H]([C@@H](C)O)C(=O)N3)NC2=O)C(=O)N[C@@H](CCCCN)C(=O)N[C@@H](CC(C)C)C(=O)N[C@@H](Cc2c[nH]c3ccccc23)C(=O)N1)[C@@H](C)CC)C(N)=O [R13 Ala mutant] | < 5.30 | 
10 | CC[C@H](C)[C@H](NC(=O)[C@H](CCCCN)NC(=O)[C@H](CCCNC(=N)N)NC(=O)[C@@H]1CSSC[C@@H]2NC(=O)[C@H](C)NC(=O)[C@H](CCCNC(=N)N)NC(=O)[C@H](CCCCN)NC(=O)[C@H](CO)NC(=O)[C@H](CC(=O)O)NC(=O)[C@@H]3CSSC[C@H](NC(=O)[C@H](CCCNC(=N)N)NC(=O)[C@H](CC(C)C)NC(=O)CNC(=O)[C@H](CCC(=O)O)NC(=O)[C@H](CSSC[C@H](NC(=O)[C@@H](N)Cc4ccc(O)cc4)C(=O)N[C@@H](CCC(N)=O)C(=O)N[C@@H](CCCCN)C(=O)N[C@@H](Cc4c[nH]c5ccccc45)C(=O)N[C@@H](CCSC)C(=O)N[C@@H](Cc4c[nH]c5ccccc45)C(=O)N[C@@H]([C@@H](C)O)C(=O)N3)NC2=O)C(=O)N[C@@H](CCCCN)C(=O)N[C@@H](CC(C)C)C(=O)N[C@@H](Cc2c[nH]c3ccccc23)C(=O)N1)C(=O)N[C@@H](CCC(=O)O)C(N)=O [I29 Glu mutant] |  | pIC50 [3]: < 5.30
11 | CC[C@H](C)[C@H](NC(=O)[C@@H](NC(=O)[C@H](CCCCN)NC(=O)[C@H](CCCNC(=N)N)NC(=O)[C@@H]1CSSC[C@@H]2NC(=O)[C@H](C)NC(=O)[C@H](CCCNC(=N)N)NC(=O)[C@H](CCCCN)NC(=O)[C@H](CO)NC(=O)[C@H](CC(=O)O)NC(=O)[C@@H]3CSSC[C@H](NC(=O)[C@H](CCCNC(=N)N)NC(=O)[C@H](CC(C)C)NC(=O)CNC(=O)[C@H](CCC(=O)O)NC(=O)[C@H](CSSC[C@H](NC(=O)[C@@H](N)Cc4ccc(O)cc4)C(=O)N[C@@H](CCC(N)=O)C(=O)N[C@@H](CCCCN)C(=O)N[C@@H](Cc4c[nH]c5ccccc45)C(=O)N[C@@H](CCSC)C(=O)N[C@@H](C)C(=O)N[C@@H]([C@@H](C)O)C(=O)N3)NC2=O)C(=O)N[C@@H](CCCCN)C(=O)N[C@@H](CC(C)C)C(=O)N[C@@H](Cc2c[nH]c3ccccc23)C(=O)N1)[C@@H](C)CC)C(N)=O [W7 Ala mutant] | < 5.30 | 

Source: article PMC5933747 (PLoS ONE, 2018)
